# Read-outs that look alike come from different tables or passages of the source.
# Key:
# E. coli ATTC 25922 = type: cell-based, Escherichia coli
# Protocol: (§1) Titration plates with a, b, d strains were incubated for 18 h at 35° C. under aerobic conditions, and the c strain was incubated for 18 h at 33° C. under aerobic conditions.
# d) Escherichia coli ATCC 25922
# S. aureus ATTC 43300 = type: cell-based, Staphylococus aureus subsp. aureus
# Protocol: as §1
# c) Staphylococus aureus subsp. aureus ATCC 43300,
# P. aeruginosa ATTC 27853 = type: cell-based, Pseudomonas aeruginosa
# Protocol: as §1
# a) Pseudomonas aeruginosa ATCC 27853,
# [1] = test system: human melanoma cells (MEW 155); conditions: MEW 155 cells, 3 days culture
# Protocol: Human melanoma cells (MEW 155) received from Institute of Oncology were inoculated on Petri dishes (Ø3 cm, Nunc) to the number of about 75 000, suspended in 3 ml of Eagle medium+10% FBS+antibiotics. Immediately after the inoculation, solutions of tested substances were added to the cells (a substance +20 ml PBS) at 0.5 ml per dish. After culturing for 3 days, numbers of cells (all, dead and alive) at each dish were determined with NucleoCounter apparatus (Chemometec).
# S. aureus ATCC 25923 = type: cell-based, Staphylococus aureus subsp. aureus
# Protocol: as §1
# b) Staphylococus aureus subsp. aureus ATCC 25923,
# C. albicans ATCC 10231 = test system: C. albicans ATCC 10231
# Protocol: Values of a minimal inhibitory concentration—MIC of compounds according to the invention for bacterial strains were assayed by a standard method of microdilutions on a liquid substrate (Clinical and Laboratory Standards Institute 2007. Methods for Dilution Antimicrobial Susceptibility Tests for Bacteria That Grow Aerobically. Approved Standard—Seventh Edition. M7-A7. Clinical and Laboratory Standards Institute, Wayne, Pa., USA).
# A series of double dilutions of the tested compounds in DMSO was prepared. They were then diluted 95× in CAMHB (Cation Adjusted Mueller—Hinton Broth).
# Bacteria were cultured for 24 h at 35° C. under aerobic conditions on a solid TSA (Triptic Soy Agar) medium. A volume of a proper test was 0.1 ml and was composed of: 0.005 ml of a saline suspension of bacteria at a density of 10^7 CFU/ml (final bacteria amount of 5×10^5/ml) and 0.095 ml of a tested compound CAMHB solution. Final concentrations of compounds in the proper test were (μg/ml): 128, 64, 32, 16, 8, 4, 2, 1.
# e) C. albicans ATCC 10231.
# [2] = E. coli ATTC 25922, microdilution in CAMHB, 18 h at 35° C.
# [3] = S. aureus ATTC 43300, microdilution in CAMHB, 18 h at 33° C.
# [4] = P. aeruginosa ATTC 27853, microdilution in CAMHB, 18 h at 35° C.
# [5] = S. aureus ATCC 25923, microdilution in CAMHB, 18 h at 35° C.
SMILES,Minimal inhibitory concentration (MIC) (E. coli ATTC 25922; [2]) [μM/L],Minimal inhibitory concentration (MIC) (S. aureus ATTC 43300; [3]) [μM/L],Minimal inhibitory concentration (MIC) (P. aeruginosa ATTC 27853; [4]) [μM/L],Minimal inhibitory concentration (MIC) (S. aureus ATCC 25923; [5]) [μM/L],further results
NCCCC[C@H](NC(=O)OCc1ccccc1Cl)C(=O)NCCNC(=O)CCN(CCC(=O)NCCNC(=O)[C@H](CCCCN)NC(=O)OCc1ccccc1Cl)CC[C@@H](C(=O)NCCc1c[nH]c2ccccc12)N(CCC(=O)NCCNC(=O)[C@H](CCCCN)NC(=O)OCc1ccccc1Cl)CCC(=O)NCCNC(=O)[C@H](CCCCN)NC(=O)OCc1ccccc1Cl [Compound 94],12.2,10.12,70,0.94,Live cells (%) ([1]; concentration 12.13 μMol dm^−3): 88.4%
NCCCC[C@H](NC(=O)OCc1ccccc1Cl)C(=O)NCCNC(=O)CCN(CCC[C@@H](C(=O)NCCc1c[nH]c2ccccc12)N(CCC(=O)NCCNC(=O)[C@H](CCCCN)NC(=O)OCc1ccccc1Cl)CCC(=O)NCCNC(=O)[C@H](CCCCN)NC(=O)OCc1ccccc1Cl)CCC(=O)NCCNC(=O)[C@H](CCCCN)NC(=O)OCc1ccccc1Cl [Compound 96],12.1,12.1,51,1.87,Live cells (%) ([1]; concentration 33.6 μMol dm^−3): 11.6%
NCCCC[C@H](NC(=O)OCc1ccccc1Cl)C(=O)NCCNC(=O)CCN(CCC(=O)NCCNC(=O)[C@H](CCCCN)NC(=O)OCc1ccccc1Cl)C[C@@H](C(=O)NCCc1c[nH]c2ccccc12)N(CCC(=O)NCCNC(=O)[C@H](CCCCN)NC(=O)OCc1ccccc1Cl)CCC(=O)NCCNC(=O)[C@H](CCCCN)NC(=O)OCc1ccccc1Cl [Compound 98],12.3,8.06,52,0.95,Live cells (%) ([1]; concentration 4.3 μMol dm^−3): 97.7%
NCCCC[C@H](NC(=O)OCc1ccccc1Cl)C(=O)NCCNC(=O)CCN(CCCC[C@@H](C(=O)NCCc1c[nH]c2ccccc12)N(CCC(=O)NCCNC(=O)[C@H](CCCCN)NC(=O)OCc1ccccc1Cl)CCC(=O)NCCNC(=O)[C@H](CCCCN)NC(=O)OCc1ccccc1Cl)CCC(=O)NCCNC(=O)[C@H](CCCCN)NC(=O)OCc1ccccc1Cl [Compound 100],3.71,5.81,41,0.93,Live cells (%) ([1]; concentration 25.7 μMol dm^−3): 0%
NCCCC[C@H](NC(=O)OCc1ccccc1)C(=O)NCCNC(=O)CCN(CCCC[C@@H](C(=O)NCCc1c[nH]c2ccccc12)N(CCC(=O)NCCNC(=O)[C@H](CCCCN)NC(=O)OCc1ccccc1)CCC(=O)NCCNC(=O)[C@H](CCCCN)NC(=O)OCc1ccccc1)CCC(=O)NCCNC(=O)[C@H](CCCCN)NC(=O)OCc1ccccc1 [Compound 102],–,–,–,–,"Minimal inhibitory concentration (MIC) (E. coli ATTC 25922; ATTC 25922, 18 h): 149 μM/L; Minimal inhibitory concentration (MIC) (S. aureus ATTC 43300; ATTC 43300, 18 h): 149 μM/L; Minimal inhibitory concentration (MIC) (P. aeruginosa ATTC 27853; ATTC 27853, 18 h): 149 μM/L; Live cells (%) ([1]; concentration 13.6 μMol dm^−3): 98.5%; Minimal inhibitory concentration (MIC) (S. aureus ATCC 25923; ATCC 25923, 18 h): 17.3 μM/L"
N[C@@H](CCCCNC(=O)OCc1ccccc1)C(=O)NCCNC(=O)CCN(CCCC[C@@H](C(=O)NCCc1c[nH]c2ccccc12)N(CCC(=O)NCCNC(=O)[C@@H](N)CCCCNC(=O)OCc1ccccc1)CCC(=O)NCCNC(=O)[C@@H](N)CCCCNC(=O)OCc1ccccc1)CCC(=O)NCCNC(=O)[C@@H](N)CCCCNC(=O)OCc1ccccc1 [Compound 103],111,74,149,12.9,Live cells (%) ([1]; concentration 15.0 μMol dm^−3): 96.5%
NCCCC[C@H](NC(=O)OCc1ccccc1Br)C(=O)NCCNC(=O)CCN(CCCC[C@@H](C(=O)NCCc1c[nH]c2ccccc12)N(CCC(=O)NCCNC(=O)[C@H](CCCCN)NC(=O)OCc1ccccc1Br)CCC(=O)NCCNC(=O)[C@H](CCCCN)NC(=O)OCc1ccccc1Br)CCC(=O)NCCNC(=O)[C@H](CCCCN)NC(=O)OCc1ccccc1Br [Compound 104],30,30,64,3.43,Live cells (%) ([1]; concentration 21.4 μMol dm^−3): 73.6%
NC[C@H](NC(=O)OCc1ccccc1)C(=O)NCCNC(=O)CCN(CCCC[C@@H](C(=O)NCCc1c[nH]c2ccccc12)N(CCC(=O)NCCNC(=O)[C@H](CN)NC(=O)OCc1ccccc1)CCC(=O)NCCNC(=O)[C@H](CN)NC(=O)OCc1ccccc1)CCC(=O)NCCNC(=O)[C@H](CN)NC(=O)OCc1ccccc1 [Compound 105],81,81,81,38,Minimal inhibitory concentration (MIC) (C. albicans ATCC 10231): 81 μM/L; Live cells (%) ([1]; concentration 10.0 μMol dm^−3): 97.7%
NCCC[C@H](NC(=O)OCc1ccccc1Cl)C(=O)NCCNC(=O)CCN(CCCC[C@@H](C(=O)NCCc1c[nH]c2ccccc12)N(CCC(=O)NCCNC(=O)[C@H](CCCN)NC(=O)OCc1ccccc1Cl)CCC(=O)NCCNC(=O)[C@H](CCCN)NC(=O)OCc1ccccc1Cl)CCC(=O)NCCNC(=O)[C@H](CCCN)NC(=O)OCc1ccccc1Cl [Compound 106],16.7,25,71,3.82,Live cells (%) ([1]; concentration 10.0 μMol dm^−3): 87.7%
CCCCCCCCCCCCNC(=O)[C@H](CCCN(CCC(=O)NCCNC(=O)[C@H](CCCCN)NC(=O)OCc1ccccc1Cl)CCC(=O)NCCNC(=O)[C@H](CCCCN)NC(=O)OCc1ccccc1Cl)N(CCC(=O)NCCNC(=O)[C@H](CCCCN)NC(=O)OCc1ccccc1Cl)CCC(=O)NCCNC(=O)[C@H](CCCCN)NC(=O)OCc1ccccc1Cl [Compound 109],–,–,–,–,Minimal inhibitory concentration (MIC) (C. albicans ATCC 10231): 69 μM/L; Live cells (%) ([1]; concentration 25.7 μMol dm^−3): 1.5%
